The text below walks through data of ChEMBL document CHEMBL2434945, “Anti-inflammatory constituents from the fruits of Vitex rotundifolia” (Bioorg Med Chem Lett, 2013).

Data set [1] deals with RAW264.7. Description: Antiinflammatory activity against mouse RAW264.7 cells assessed as inhibition of LPS-induced NO production after 24 hrs by Griess method. It counts as functional, cell-based. The following applies: RAW264.7, 24 h. On the technique in general: Nitrite, measured by Griess reagent, commonly stands in for NO production.
The nature of data set [2]: Cytotoxicity against mouse RAW264.7 cells assessed as cell viability by colorimetric method relative to control. It counts as cell-based. On the set-up: concentration or dose not given beside the values. The following applies: read-out: Activity.

Usually IC50 stands for the concentration at which inhibition is half-maximal. On to `C=CC(C)(O)CC[C@@]1(C)C2=C([C@H](OC(C)=O)[C@H](OC(C)=O)[C@H]1C)C(C)(C)CCC2` (some centres undefined) [VITETRIFOLIN D], for which the IC50 in data set [1] came out at 24.5 µM. For the same molecule, the viability in data set [2] is above 90%. Consider `C[C@@H]1CC[C@H]2C(C)(C)CCC[C@]2(C)[C@@]12CC/C(=C\C=O)O2`, for which, in data set [1], the IC50 worked out at 41.8 µM. For the same molecule, the viability in data set [2] is above 90%. For the molecule `CC(=O)O[C@H]1CC[C@@]2(C)[C@@H](CC[C@@H](C)[C@]23CCC(=O)O3)C1(C)C` [VITEDOIN B], the IC50 in data set [1] was above 50 µM. Also, in data set [2], the viability is above 90%. As to `N=C(N)NN` [PIMAGEDINE], the viability in data set [2] was above 90%. For `CC(=O)O[C@@H]1C[C@@H](C)[C@](O)(CCC2=CC(=O)OC2)[C@@]2(C)CCCC(C)(C)[C@H]12` [VITEXILACTONE], the IC50 in data set [1] was determined as 42.5 µM. Besides, the viability in data set [2] is above 90%. On the same counts, the results for `COc1cc(C[C@H]2CO[C@H](c3ccc(O)c(OC)c3)[C@H]2CO)ccc1O` [LARICIRESINOL] are above 50 µM and above 90%. On the same counts, the results for `CC(C)(O)c1ccc2c(c1)CC[C@H]1C(C)(C)[C@@H](O)CC[C@]21C` are above 50 µM and above 90%. `CC(=O)O[C@@H]1C[C@@H](C)[C@](O)(CCC2=CC(=O)OC2O)[C@@]2(C)CCCC(C)(C)[C@H]12` (some centres undefined) [VITEAGNUSIN I]: the IC50 in data set [1] worked out at 11.3 µM. Also, the viability in data set [2] was above 90%. On the same counts, the results for `COc1cc([C@H]2Oc3c(OC)cc(CCCO)cc3[C@@H]2CO)ccc1O` [DIHYDRODEHYDRODICONIFERY ALCOHOL] are 38.7 µM and above 90%.

In the case of `COc1ccc(-c2oc3cc(OC)c(OC)c(O)c3c(=O)c2OC)cc1O` [CASTICIN], the half-maximal inhibitory concentration (IC50) in data set [1] came to 21.4 µM. In addition, in data set [2], the viability was above 90%.
